In patent US20210255184A1, “Biosensor Device and Methods” (The New Zealand Institute for Plant and Food Research …, priority 2018, published 2021):
pEC50: −log10 of the molar value. Where two headings read alike, the source gives them in different places.

Assays:
[1] = biological target: T1, DmOr22a/Orco (Drosophila melanogaster, UniProt P81909); settings: * estimated visually from graph, cited from earlier work
T1 sequence (P81909 1-397): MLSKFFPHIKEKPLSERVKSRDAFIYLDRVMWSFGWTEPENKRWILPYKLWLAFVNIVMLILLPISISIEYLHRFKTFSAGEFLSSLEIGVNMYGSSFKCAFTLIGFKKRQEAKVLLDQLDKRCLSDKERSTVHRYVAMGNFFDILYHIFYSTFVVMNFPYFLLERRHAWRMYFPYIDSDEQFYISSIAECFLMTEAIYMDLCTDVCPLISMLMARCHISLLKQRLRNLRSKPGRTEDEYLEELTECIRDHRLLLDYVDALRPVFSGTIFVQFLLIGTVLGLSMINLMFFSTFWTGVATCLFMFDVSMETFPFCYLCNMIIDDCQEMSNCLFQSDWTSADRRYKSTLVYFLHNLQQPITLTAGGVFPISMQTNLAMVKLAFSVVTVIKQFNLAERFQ
T1 sequence (Q9VNB5 1-486 partner): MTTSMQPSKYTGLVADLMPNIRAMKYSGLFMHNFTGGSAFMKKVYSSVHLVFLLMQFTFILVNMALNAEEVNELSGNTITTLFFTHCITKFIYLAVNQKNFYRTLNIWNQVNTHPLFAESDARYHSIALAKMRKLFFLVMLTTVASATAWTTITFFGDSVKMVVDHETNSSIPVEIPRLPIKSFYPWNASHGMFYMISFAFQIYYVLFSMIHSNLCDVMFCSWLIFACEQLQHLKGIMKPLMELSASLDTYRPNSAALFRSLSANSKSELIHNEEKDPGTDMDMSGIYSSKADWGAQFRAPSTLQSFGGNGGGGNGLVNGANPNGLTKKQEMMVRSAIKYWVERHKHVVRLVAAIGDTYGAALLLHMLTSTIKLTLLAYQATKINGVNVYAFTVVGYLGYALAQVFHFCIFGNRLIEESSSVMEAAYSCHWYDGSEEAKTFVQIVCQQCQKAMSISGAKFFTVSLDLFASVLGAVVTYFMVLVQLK

[2] = biological target: T2, Or10a/Orco (Drosophila melanogaster, UniProt Q9VYZ1); assay: EIS sensor, Or10a/Orco liposomes on gold electrode; format: biochemical
T2 construct: his-tag; made in house; host or cells: baculovirus-infected Sf9 cells
T2 sequence (Q9VYZ1 1-406): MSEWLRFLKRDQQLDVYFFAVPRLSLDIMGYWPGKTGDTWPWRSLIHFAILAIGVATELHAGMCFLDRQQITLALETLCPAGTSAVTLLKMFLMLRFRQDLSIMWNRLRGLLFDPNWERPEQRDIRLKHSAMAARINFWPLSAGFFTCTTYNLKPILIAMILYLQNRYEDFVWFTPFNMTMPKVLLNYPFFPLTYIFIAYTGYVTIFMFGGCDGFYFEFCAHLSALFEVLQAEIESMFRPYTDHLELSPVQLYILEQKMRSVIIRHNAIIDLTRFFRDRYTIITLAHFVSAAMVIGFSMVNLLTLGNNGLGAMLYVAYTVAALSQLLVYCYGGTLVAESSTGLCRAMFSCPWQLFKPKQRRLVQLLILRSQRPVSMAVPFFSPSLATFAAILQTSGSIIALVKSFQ
T2 sequence (Q9VNB5 1-486 partner): T1 sequence (Q9VNB5 1-486 partner)
Description: Prior to their use, liposomes were defrosted on ice and then destabilized by incubating with 0.2% CHAPS for 15 min at room temperature. Then 200 μg of purified odorant receptor^28 was added to 1 mg of liposomes and rotated at 10 rpm for 1 h at room temperature. Excess detergent was removed by four additions of 25 mg of Bio-Beads SM-2 (Bio-Rad, USA) and incubation at 4° C. for 30 min, 2 h, overnight and a further 2 h respectively. The Bio-Beads were removed after each incubation period. The OrX or OrX/Orco integrated liposomes were pelleted by centrifugation at 100,000 g for 1 h, and were resuspended in 500 μL of rehydration buffer. Integration of OrXs and Orco into liposomes was assessed by density gradient ultracentrifugation (DGU) using Accudenz (Accurate Chemical & Scientific Corporation, USA). The integrated liposomes were brought to 40% Accudenz by the addition of an equal volume of 80% Accudenz solution, placed at the bottom of an ultra-centrifugation tube, and overlaid with 30% Accudenz solution, and DGU buffer (25 mM HEPES pH 7.5, 100 mM NaCl, 10% glycerol). The sample was then centrifuged at 100,000 g for 4 h at 4° C. Liposomes will float to the top of the gradient after Accudenz DGU due to their low density.
2 mM MHA was prepared by dissolving 1.36 μl of MHA in 5 ml ethanol (AR grade). The cleaned electrodes were immersed into MHA solution and incubated overnight. The next day, all the electrodes were washed with ethanol and deionised water thoroughly in order to remove the unreacted acid. A 2:1 mol:mol ratio of EDC:NHS (100 mM EDC, 50 mM NHS) was prepared in 2 ml PBS (pH=6.5) solution. Then, the electrodes were covered in 100 μl of this solution at 28° C. for an hour to activate the carboxylic (COOH) groups of the MHA.
PBS solution was prepared by immersing one tablet of PBS in 200 ml of milli-Q water (according to manufacturers instructions) and filtered using 0.2-μm syringe filter. The pH of the prepared buffer solution was measured with a pH meter. OrX liposomes or OrX/Orco liposomes were diluted 100 fold in PBS buffer solution (pH=7.4) and the COOH-activated electrodes were incubated in that buffer solution at room temperature for one hour. Then, the electrodes were washed extensively with PBS buffer solution to wash out any unbound liposomes.
PBS (pH=7.4) was used as an electrolyte to conduct electrochemical measurements. PBS buffer was degassed for about 30 minutes prior to electrochemical measurements. […] OR immobilized electrodes were incubated in relevant odorant solution for ˜30 minutes each and washed gently with PBS before EIS measurements. […]

Q: Which results are given for `CCCCCC(=O)OC` [methyl hexanoate]?
A: Sensitivity limit (given as Log) ([1]; ref 43): Log = −7.5*; Sensitivity limit (given as Log) ([1]; ref 44): Log = −7*

Q: Which limit of detection ([2]; EIS dose response, ligand 1 aM to 100 μM) does the source give for `COC(=O)c1ccccc1O` [methyl salicylate] here?
A: Its limit of detection is 1 fM.

Q: And the pEC50 ([2]; Table 1, approximate)?
A: The pEC50 was roughly 12.00.

Q: What about the Sensitivity limit ([2]; Table 1, * estimated visually from dose response graph) of the same molecule?
A: The Sensitivity limit was ~10^−15 M*.

Q: What about the “Detection Range” value ([2]; Table 3) of the same molecule?
A: The value was 10^−15-10^−7 M.
